Results taken from patent US10206399B2, “Herbicidal composition comprising uracil compound as active ingredient” (Dongbu Farm Hannong Co., Ltd., priority 2012, dated 2019).
Where two headings read alike, the source gives them in different places.

Assays:
Echinochloa crus = details: for Echinochloa crus mortality, measured value: 20 days after treatment; for plant mortality, measured value: Echinochloa crus
Excerpt: (§1) X is % damage by uracil compound (a) of formula 1 at the rate of application of p kg/ha; Y is % damage by conventional herbicidal compound (b) at the rate of application of q kg/ha; and E is the expected damage caused by compounds (a) and (b) at a rate of application of p and q kg/ha.
(§2) The expected activity for a given combination of two herbicides can be calculated using equation 1 above.

Xanthium spinosum = experiment: whole plant or invertebrate; details: for pest or weed control at 150 g/ha: read-out: plant mortality, measured value, 150 g/ha; for pest or weed control at 300 g/ha: read-out: plant mortality, measured value, 300 g/ha
Excerpt: as §1, §2

Abutilon theophrasti = experiment: whole plant or invertebrate; details: for pest or weed control at 150 g/ha: read-out: plant mortality, measured value, 150 g/ha; for pest or weed control at 300 g/ha: read-out: plant mortality, measured value, 300 g/ha
Excerpt: as §1, §2

Aeschynomene indica = experiment: whole plant or invertebrate; details: for pest or weed control at 150 g/ha: read-out: plant mortality, measured value, 150 g/ha; for pest or weed control at 300 g/ha: read-out: plant mortality, measured value, 300 g/ha
Excerpt: as §1, §2

Digitaria sanguinalis = details: for Digitaria sanguinalis mortality, measured value: 20 days after treatment; for plant mortality, measured value: Digitaria sanguinalis
Excerpt: as §1, §2

[1] = 480 h, read-out: Xanthium spinosum mortality, measured value
[2] = read-out: plant mortality, measured value, 75 g/ha
[3] = 480 h, read-out: Abutilon theophrasti mortality, measured value
[4] = 480 h, read-out: Aeschynomene indica mortality, measured value
[5] = read-out: plant mortality, measured value, 600 g/ha

SMILES: CP(=O)(O)CCC(N)C(=O)O (stereo not drawn) [Glufosinate, reference compound]
- Echinochloa crus mortality, measured value (Echinochloa crus; 75 g/ha): 15%
- plant mortality, measured value (Echinochloa crus; 75 g/ha): 15
- Echinochloa crus mortality, measured value (Echinochloa crus; 150 g/ha): 29%
- plant mortality, measured value (Echinochloa crus; 150 g/ha): 29
- Echinochloa crus mortality, measured value (Echinochloa crus; 300 g/ha): 60%
- plant mortality, measured value (Echinochloa crus; 300 g/ha): 60
- mortality at 75 g/ha (Xanthium spinosum; [1]): 13%
- mortality at 150 g/ha (Xanthium spinosum; [1]): 25%
- mortality at 300 g/ha (Xanthium spinosum; [1]): 56%
- pest or weed control at 75 g/ha (Xanthium spinosum; [2]): 13%
- pest or weed control at 150 g/ha (Xanthium spinosum): 25%
- pest or weed control at 300 g/ha (Xanthium spinosum): 56%
- mortality at 75 g/ha (Abutilon theophrasti; [3]): 7%
- mortality at 150 g/ha (Abutilon theophrasti; [3]): 25%
- mortality at 300 g/ha (Abutilon theophrasti; [3]): 49%
- pest or weed control at 75 g/ha (Abutilon theophrasti; [2]): 7%
- pest or weed control at 150 g/ha (Abutilon theophrasti): 25%
- pest or weed control at 300 g/ha (Abutilon theophrasti): 49%
- mortality at 75 g/ha (Aeschynomene indica; [4]): 5%
- mortality at 150 g/ha (Aeschynomene indica; [4]): 18%
- mortality at 300 g/ha (Aeschynomene indica; [4]): 46%
- pest or weed control at 75 g/ha (Aeschynomene indica; [2]): 5%
- pest or weed control at 150 g/ha (Aeschynomene indica): 18%
- pest or weed control at 300 g/ha (Aeschynomene indica): 46%
- Digitaria sanguinalis mortality, measured value (Digitaria sanguinalis; 75 g/ha): 11%
- plant mortality, measured value (Digitaria sanguinalis; 75 g/ha): 11
- Digitaria sanguinalis mortality, measured value (Digitaria sanguinalis; 150 g/ha): 27%
- plant mortality, measured value (Digitaria sanguinalis; 150 g/ha): 27
- Digitaria sanguinalis mortality, measured value (Digitaria sanguinalis; 300 g/ha): 57%
- plant mortality, measured value (Digitaria sanguinalis; 300 g/ha): 57

SMILES: O=C(O)CNCP(=O)(O)O [Glyphosate, reference compound]
- Echinochloa crus mortality, measured value (Echinochloa crus; 150 g/ha): 12%
- plant mortality, measured value (Echinochloa crus; 150 g/ha): 12
- Echinochloa crus mortality, measured value (Echinochloa crus; 300 g/ha): 23%
- plant mortality, measured value (Echinochloa crus; 300 g/ha): 23
- Echinochloa crus mortality, measured value (Echinochloa crus; 600 g/ha): 48%
- plant mortality, measured value (Echinochloa crus; 600 g/ha): 48
- mortality at 150 g/ha (Xanthium spinosum; [1]): 11%
- mortality at 300 g/ha (Xanthium spinosum; [1]): 30%
- mortality at 600 g/ha (Xanthium spinosum; [1]): 64%
- pest or weed control at 150 g/ha (Xanthium spinosum): 11%
- pest or weed control at 300 g/ha (Xanthium spinosum): 30%
- pest or weed control at 600 g/ha (Xanthium spinosum; [5]): 64%
- mortality at 150 g/ha (Abutilon theophrasti; [3]): 8%
- mortality at 300 g/ha (Abutilon theophrasti; [3]): 27%
- mortality at 600 g/ha (Abutilon theophrasti; [3]): 59%
- pest or weed control at 150 g/ha (Abutilon theophrasti): 8%
- pest or weed control at 300 g/ha (Abutilon theophrasti): 27%
- pest or weed control at 600 g/ha (Abutilon theophrasti; [5]): 59%
- mortality at 150 g/ha (Aeschynomene indica; [4]): 9%
- mortality at 300 g/ha (Aeschynomene indica; [4]): 22%
- mortality at 600 g/ha (Aeschynomene indica; [4]): 47%
- pest or weed control at 150 g/ha (Aeschynomene indica): 9%
- pest or weed control at 300 g/ha (Aeschynomene indica): 22%
- pest or weed control at 600 g/ha (Aeschynomene indica; [5]): 47%
- Digitaria sanguinalis mortality, measured value (Digitaria sanguinalis; 150 g/ha): 8%
- plant mortality, measured value (Digitaria sanguinalis; 150 g/ha): 8
- Digitaria sanguinalis mortality, measured value (Digitaria sanguinalis; 300 g/ha): 18%
- plant mortality, measured value (Digitaria sanguinalis; 300 g/ha): 18
- Digitaria sanguinalis mortality, measured value (Digitaria sanguinalis; 600 g/ha): 46%
- plant mortality, measured value (Digitaria sanguinalis; 600 g/ha): 46

SMILES: CC(Oc1ccc(Oc2ncc(C(F)(F)F)cc2Cl)cc1)C(=O)O (stereo not drawn) [Haloxyfop, reference compound]
- Echinochloa crus mortality, measured value (Echinochloa crus; 12.5 g/ha): 11%
- Echinochloa crus mortality, measured value (Echinochloa crus; 25 g/ha): 28%
- Echinochloa crus mortality, measured value (Echinochloa crus; 50 g/ha): 58%
- mortality at 12.5 g/ha (Xanthium spinosum; [1]): 0%
- mortality at 25 g/ha (Xanthium spinosum; [1]): 0%
- mortality at 50 g/ha (Xanthium spinosum; [1]): 0%
- mortality at 12.5 g/ha (Abutilon theophrasti; [3]): 0%
- mortality at 25 g/ha (Abutilon theophrasti; [3]): 0%
- mortality at 50 g/ha (Abutilon theophrasti; [3]): 0%
- mortality at 12.5 g/ha (Aeschynomene indica; [4]): 0%
- mortality at 25 g/ha (Aeschynomene indica; [4]): 0%
- mortality at 50 g/ha (Aeschynomene indica; [4]): 0%
- Digitaria sanguinalis mortality, measured value (Digitaria sanguinalis; 12.5 g/ha): 14%
- Digitaria sanguinalis mortality, measured value (Digitaria sanguinalis; 25 g/ha): 29%
- Digitaria sanguinalis mortality, measured value (Digitaria sanguinalis; 50 g/ha): 57%

SMILES: CCc1cnc(C2=NC(C)(C(C)C)C(=O)N2)c(C(=O)O)c1 (stereo not drawn) [Imazethapyr]
- Data (measured value) Echinochloa crus (Echinochloa crus; 25 g/ha): 11
- Data (measured value) Echinochloa crus (Echinochloa crus; 50 g/ha): 26
- Data (measured value) Echinochloa crus (Echinochloa crus; 100 g/ha): 53
- pest or weed control at 25 g/ha (Xanthium spinosum; read-out: Data (measured value) Xanthium spinosum, 25 g/ha): 9%
- pest or weed control at 50 g/ha (Xanthium spinosum; read-out: Data (measured value) Xanthium spinosum, 50 g/ha): 20%
- pest or weed control at 100 g/ha (Xanthium spinosum; read-out: Data (measured value) Xanthium spinosum, 100 g/ha): 47%
- pest or weed control at 25 g/ha (Abutilon theophrasti; read-out: Data (measured value) Abutilon theophrasti, 25 g/ha): 9%
- pest or weed control at 50 g/ha (Abutilon theophrasti; read-out: Data (measured value) Abutilon theophrasti, 50 g/ha): 24%
- pest or weed control at 100 g/ha (Abutilon theophrasti; read-out: Data (measured value) Abutilon theophrasti, 100 g/ha): 58%
- pest or weed control at 25 g/ha (Aeschynomene indica; read-out: Data (measured value) Aeschynomene indica, 25 g/ha): 11%
- pest or weed control at 50 g/ha (Aeschynomene indica; read-out: Data (measured value) Aeschynomene indica, 50 g/ha): 25%
- pest or weed control at 100 g/ha (Aeschynomene indica; read-out: Data (measured value) Aeschynomene indica, 100 g/ha): 54%
- Data (measured value) Digitaria sanguinalis (Digitaria sanguinalis; 25 g/ha): 11
- Data (measured value) Digitaria sanguinalis (Digitaria sanguinalis; 50 g/ha): 26
- Data (measured value) Digitaria sanguinalis (Digitaria sanguinalis; 100 g/ha): 62

SMILES: Cc1cc(Cl)ccc1OC(C)C(=O)O (stereo not drawn) [Mecoprop]
- Data (measured value) Echinochloa crus (Echinochloa crus; 200 g/ha): 0
- Data (measured value) Echinochloa crus (Echinochloa crus; 400 g/ha): 0
- Data (measured value) Echinochloa crus (Echinochloa crus; 800 g/ha): 0
- pest or weed control at 200 g/ha (Xanthium spinosum; read-out: Data (measured value) Xanthium spinosum, 200 g/ha): 9%
- pest or weed control at 400 g/ha (Xanthium spinosum; read-out: Data (measured value) Xanthium spinosum, 400 g/ha): 19%
- pest or weed control at 800 g/ha (Xanthium spinosum; read-out: Data (measured value) Xanthium spinosum, 800 g/ha): 45%
- pest or weed control at 200 g/ha (Abutilon theophrasti; read-out: Data (measured value) Abutilon theophrasti, 200 g/ha): 14%
- pest or weed control at 400 g/ha (Abutilon theophrasti; read-out: Data (measured value) Abutilon theophrasti, 400 g/ha): 29%
- pest or weed control at 800 g/ha (Abutilon theophrasti; read-out: Data (measured value) Abutilon theophrasti, 800 g/ha): 64%
- pest or weed control at 200 g/ha (Aeschynomene indica; read-out: Data (measured value) Aeschynomene indica, 200 g/ha): 8%
- pest or weed control at 400 g/ha (Aeschynomene indica; read-out: Data (measured value) Aeschynomene indica, 400 g/ha): 24%
- pest or weed control at 800 g/ha (Aeschynomene indica; read-out: Data (measured value) Aeschynomene indica, 800 g/ha): 55%
- Data (measured value) Digitaria sanguinalis (Digitaria sanguinalis; 200 g/ha): 0
- Data (measured value) Digitaria sanguinalis (Digitaria sanguinalis; 400 g/ha): 0
- Data (measured value) Digitaria sanguinalis (Digitaria sanguinalis; 800 g/ha): 0
